PubChem BioAssay (NCI)
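The compound was tested at five concentrations on cells cultured in 96-well plates, with a 48-hour exposure period. Abbreviation: GI50, concentration required for 50% inhibition of growth. TGI is the concentration that stops growth completely.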

Assays:
Assay in all cases: NCI-60 cell line screen, 48 h
[1] = system: HOP-62 NSCLC
[2] = system: 786-0 renal
[3] = system: HCC-2998 colon
[4] = system: OVCAR-5 ovarian
[5] = system: MDA-MB-231 breast
[6] = system: SNB-75 CNS
[7] = system: SNB-19 CNS
[8] = system: A498 renal
[9] = system: NCI-H23 lung
[10] = system: UACC-257 melanoma
[11] = system: BT-549 breast
[12] = system: SF-268 CNS
[13] = system: K-562 leukemia
[14] = system: SW-620 colon
[15] = system: HS 578T breast
[16] = system: U251 CNS
[17] = system: NCI-H226 lung
[18] = system: CCRF-CEM leukemia
[19] = system: UO-31 renal
[20] = system: CAKI-1 renal
[21] = system: M14 melanoma
[22] = system: SN12C renal
[23] = system: MOLT-4 leukemia
[24] = system: NCI-H522 lung
[25] = system: PC-3 prostate
[26] = system: SR leukemia
[27] = system: HCT-116 colon
[28] = system: LOX IMVI melanoma
[29] = system: SK-OV-3 ovarian

Work on `CCCC(=O)NC(c1cccnc1)c1ccc2c(C)ccnc2c1O` (configuration not stated) yielded a TGI [1] of over 100 µM, a GI50 [2] of 2.08 µM and a TGI [2] of over 100 µM. The GI50 [3] was 2.68 µM, the TGI [3] was over 100 µM and the GI50 [4] was 2.87 µM. For the same compound, the TGI [4] was over 100 µM, the GI50 [5] was 2.23 µM and the TGI [5] was over 100 µM. It also gave a GI50 [6] of 3.13 µM, a TGI [6] of over 100 µM and a GI50 [7] of 3.42 µM. It also gave a TGI [7] of over 100 µM, a GI50 [8] of 2.36 µM and a TGI [8] of 16.8 µM. For the same compound, the GI50 [9] was 2.54 µM, the TGI [9] was over 100 µM and the GI50 [10] was 2.46 µM. For the same compound, the TGI [10] was over 100 µM, the GI50 [11] was 3.93 µM and the TGI [11] was over 100 µM. It also gave a GI50 [12] of 1.81 µM, a TGI [12] of over 100 µM and a GI50 [13] of 0.851 µM. It also gave a TGI [13] of over 100 µM, a GI50 [14] of 1.94 µM and a TGI [14] of over 100 µM. The GI50 [15] was 8.72 µM, the TGI [15] was over 100 µM and the GI50 [16] was 1.6 µM. The TGI [16] was over 100 µM, the GI50 [17] was 2.75 µM and the TGI [17] was over 100 µM. For the same compound, the GI50 [18] was 0.568 µM, the TGI [18] was over 100 µM and the GI50 [19] was 0.548 µM. It also gave a TGI [19] of 41.3 µM, a GI50 [20] of 1.03 µM and a TGI [20] of over 100 µM. It also gave a GI50 [21] of 1.16 µM, a TGI [21] of over 100 µM and a GI50 [22] of 2.37 µM. For the same compound, the TGI [22] was over 100 µM, the GI50 [23] was 0.549 µM and the TGI [23] was over 100 µM. It also gave a GI50 [24] of 2.17 µM, a TGI [24] of over 100 µM and a GI50 [25] of 2.54 µM. The TGI [25] was over 100 µM, the GI50 [26] was 0.472 µM and the TGI [26] was over 100 µM. It also gave a GI50 [27] of 0.538 µM, a TGI [27] of over 100 µM and a GI50 [28] of 0.697 µM. For the same compound, the TGI [28] was 11.7 µM, the GI50 [29] was 2.1 µM and the TGI [29] was over 100 µM.
